We go through 30 compounds from the supplement of paper PMC11616607.

In the first test the test system is HOSE2C. The experiment in a line: drug sensitivity score (DSS) from 5-point dose-response viability curve (DSS (area-under-curve based score)); higher = more sensitive (stronger growth inhibition or killing); extreme values may be limits of the assay. To be noted: exposure time: 72 h; concentration range: 5 concentrations over 10,000-fold range. The gist of the method: (§1)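 Viability of ovarian cancer and normal ovarian cell lines was read by CellTiter-Glo luminescence after 3 days at 37°C and 5% CO2 in 384-well plates holding 1,500 cells per well. Drugs had been dispensed in DMSO or water with an Echo 550 at five concentrations over a 10,000-fold range. Using Breeze software, a drug sensitivity score was assigned per cell line and drug, higher scores meaning more sensitive, and zero means no response.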
Regarding `COc1ccc(-c2ccc3ncc4c(c3c2)n(-c2ccc(N3CCNCC3)c(C(F)(F)F)c2)c(=O)n4C)cn1` [NVP-BGT226], the drug sensitivity score was found to be 15.7. In turn, `Cc1ccc(C(=O)Nc2cccc(C(F)(F)F)c2)cc1Nc1nc(-c2cccnc2)nc2c1cnn2C` [NVP-BHG712] showed a drug sensitivity score of 2.7. Turning to `COc1cc2c(cc1OC(C)C)[C@H](c1ccc(Cl)cc1)N(c1ccc(N(C)C[C@H]3CC[C@H](N4CCN(C)C(=O)C4)CC3)cc1)C(=O)C2` [NVP-CGM097], the drug sensitivity score turned out to be 16.5. Turning to `CN[C@@H](C)C(=O)N[C@H](C(=O)N1CCC[C@H]1c1nc(C(=O)c2ccc(F)cc2)cs1)C1CCCCC1` [NVP-LCL161], the drug sensitivity score worked out at 0. Compound `Cn1c(Nc2ccc(C(F)(F)F)cc2)nc2cc(Oc3ccnc(-c4ncc(C(F)(F)F)[nH]4)c3)ccc21` [NVP-RAF265] yielded a drug sensitivity score of 4.5. Consider `CC(=O)c1cc2c(o1)C(=O)c1ccccc1C2=O` [Napabucasin], for which the drug sensitivity score came to 24.2. Same read-out and setting: to `CC1(C)CCC(c2ccc(Cl)cc2)=C(CN2CCN(c3ccc(C(=O)NS(=O)(=O)c4ccc(N[C@H](CCN5CCOCC5)CSc5ccccc5)c(S(=O)(=O)C(F)(F)F)c4)cc3)CC2)C1` [Navitoclax] belongs 5.9; to `CN1C(=O)N[C@H](Cc2c[nH]c3c(Cl)cccc23)C1=O` [Necrostatin 2], 0. As for `O=c1ncn2nc(Sc3ccc(F)cc3F)ccc2c1-c1c(Cl)cccc1Cl` [Neflamapimod], the drug sensitivity score amounted to 0. For `COc1nc(N)nc2c1ncn2[C@@H]1O[C@H](CO)[C@@H](O)[C@@H]1O` [Nelarabine], the drug sensitivity score was 0.

`CCOc1cc2ncc(C#N)c(Nc3ccc(OCc4ccccn4)c(Cl)c3)c2cc1NC(=O)/C=C/CN(C)C` [Neratinib] returned a drug sensitivity score of 1. As to `Cc1cn(-c2cc(NC(=O)c3ccc(C)c(Nc4nccc(-c5cccnc5)n4)c3)cc(C(F)(F)F)c2)cn1` [Nilotinib], the drug sensitivity score was 0.

In turn, `CC1(C)NC(=O)N(c2ccc([N+](=O)[O-])c(C(F)(F)F)c2)C1=O` [Nilutamide] came in with a drug sensitivity score of 0. In the case of `COC(=O)c1ccc2c(c1)NC(=O)/C2=C(\Nc1ccc(N(C)C(=O)CN2CCN(C)CC2)cc1)c1ccccc1` [Nintedanib], the drug sensitivity score turned out to be 6.3. Same read-out and setting: next, `NC(=O)c1cccc2cn(-c3ccc([C@@H]4CCCNC4)cc3)nc12` [Niraparib]: 1.9.

A further test has as its system JHOS2. Described as above. To be noted: exposure time: 72 h; concentration range: 5 concentrations over 10,000-fold range. The gist of the method: as §1
Compound `C[C@H]1C[C@@H]2[C@H]([C@@H](O)C[C@@]3(C)[C@H]2CC[C@]3(O)C(=O)CO)[C@@]2(C)C=CC(=O)C=C12` [Methylprednisolone] had a drug sensitivity score of 0.7. On the same count and under the same terms, to `CO[C@@H]1[C@H](N(C)C(=O)c2ccccc2)C[C@H]2O[C@]1(C)n1c3ccccc3c3c4c(c5c6ccccc6n2c5c31)C(=O)NC4` [Midostaurin] belongs 9.7; to `CNC(=O)c1nn(C)c2c1C(C)(C)Cc1cnc(Nc3ccc(N4CCN(C)CC4)cc3)nc1-2` [Milciclib], 9.1; to `CCCCCCCCCCCCCCCCOP(=O)([O-])OCC[N+](C)(C)C` [Miltefosine], 11.5. As to `CO[C@@]12[C@H](COC(N)=O)C3=C(C(=O)C(C)=C(N)C3=O)N1C[C@@H]1N[C@@H]12` [Mitomycin C], the drug sensitivity score was 0. In turn, `Clc1ccc(C(c2ccccc2Cl)C(Cl)Cl)cc1` (stereo not given) [Mitotane] came in with a drug sensitivity score of 0. `O=C1c2c(O)ccc(O)c2C(=O)c2c(NCCNCCO)ccc(NCCNCCO)c21` [Mitoxantrone] had a drug sensitivity score of 6.2. The same measure, in the same setting: next, `CCS(=O)(=O)Nc1ccc(Oc2ccc(F)cc2F)c(-c2cn(C)c(=O)c3[nH]ccc23)c1` [Mivebresib]: 18.4; `Nc1ccccc1NC(=O)c1ccc(CNc2nccc(-c3cccnc3)n2)cc1` [Mocetinostat]: 7.3. With `CCNC(=O)C[C@@H]1N=C(c2ccc(Cl)cc2)c2cc(OC)ccc2-n2c(C)nnc21` [Molibresib], the drug sensitivity score worked out at 4.1.

In turn, `N#CCNC(=O)c1ccc(-c2ccnc(Nc3ccc(N4CCOCC4)cc3)n2)cc1` [Momelotinib] had a drug sensitivity score of 6.9. On to `CC1(C)CNc2cc(NC(=O)c3cccnc3NCc3ccncc3)ccc21` [Motesanib], for which the drug sensitivity score is 0.

The compound `CCCN(CCC)C(=O)C1=Cc2ccc(-c3ccc(C(=O)N4CCCC4)cc3)cc2N=C(N)C1` [Motolimod] came in with a drug sensitivity score of 1.8.

`FC(F)(F)c1ccc(/C=C/c2nc(COc3ccc(CCCCn4ccnn4)cc3)co2)cc1` [Mubritinib] had a drug sensitivity score of 0.3. Same read-out and setting: to `Cc1cc(OCc2nnc(SC3CCCC3)n2-c2cccnc2)ccc1-c1ccc(S(C)(=O)=O)cc1` [NMS-873] belongs 6.7. Turning to `COc1ccc(-c2ccc3ncc4c(c3c2)n(-c2ccc(N3CCNCC3)c(C(F)(F)F)c2)c(=O)n4C)cn1` [NVP-BGT226], the drug sensitivity score was 11.6.

As to `Cc1ccc(C(=O)Nc2cccc(C(F)(F)F)c2)cc1Nc1nc(-c2cccnc2)nc2c1cnn2C` [NVP-BHG712], the drug sensitivity score was found to be 2.1. `COc1cc2c(cc1OC(C)C)[C@H](c1ccc(Cl)cc1)N(c1ccc(N(C)C[C@H]3CC[C@H](N4CCN(C)C(=O)C4)CC3)cc1)C(=O)C2` [NVP-CGM097] came in with a drug sensitivity score of 6.4.

`CN[C@@H](C)C(=O)N[C@H](C(=O)N1CCC[C@H]1c1nc(C(=O)c2ccc(F)cc2)cs1)C1CCCCC1` [NVP-LCL161] came in with a drug sensitivity score of 9.1. Turning to `Cn1c(Nc2ccc(C(F)(F)F)cc2)nc2cc(Oc3ccnc(-c4ncc(C(F)(F)F)[nH]4)c3)ccc21` [NVP-RAF265], the drug sensitivity score turned out to be 1.2. Same read-out and setting: to `CC(=O)c1cc2c(o1)C(=O)c1ccccc1C2=O` [Napabucasin] belongs 18.6; to `CC1(C)CCC(c2ccc(Cl)cc2)=C(CN2CCN(c3ccc(C(=O)NS(=O)(=O)c4ccc(N[C@H](CCN5CCOCC5)CSc5ccccc5)c(S(=O)(=O)C(F)(F)F)c4)cc3)CC2)C1` [Navitoclax], 0; to `CN1C(=O)N[C@H](Cc2c[nH]c3c(Cl)cccc23)C1=O` [Necrostatin 2], 0. As to `O=c1ncn2nc(Sc3ccc(F)cc3F)ccc2c1-c1c(Cl)cccc1Cl` [Neflamapimod], the drug sensitivity score was found to be 0. Consider `COc1nc(N)nc2c1ncn2[C@@H]1O[C@H](CO)[C@@H](O)[C@@H]1O` [Nelarabine], for which the drug sensitivity score turned out to be 0.

`CCOc1cc2ncc(C#N)c(Nc3ccc(OCc4ccccn4)c(Cl)c3)c2cc1NC(=O)/C=C/CN(C)C` [Neratinib] yielded a drug sensitivity score of 1.4.

With `Cc1cn(-c2cc(NC(=O)c3ccc(C)c(Nc4nccc(-c5cccnc5)n4)c3)cc(C(F)(F)F)c2)cn1` [Nilotinib], the drug sensitivity score is 0. The same measure, in the same setting: to `CC1(C)NC(=O)N(c2ccc([N+](=O)[O-])c(C(F)(F)F)c2)C1=O` [Nilutamide] belongs 0.6.

The compound `COC(=O)c1ccc2c(c1)NC(=O)/C2=C(\Nc1ccc(N(C)C(=O)CN2CCN(C)CC2)cc1)c1ccccc1` [Nintedanib] registered a drug sensitivity score of 0.6. For the compound `NC(=O)c1cccc2cn(-c3ccc([C@@H]4CCCNC4)cc3)nc12` [Niraparib], the drug sensitivity score was found to be 1.5.
